Reference: PubChem BioAssay (NCI)
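A five-concentration, 48-hour dose response in 96-well plates underlies each endpoint, interpolated linearly between surrounding concentrations. GI50 is the concentration that inhibits growth by half. Definition used: TGI = concentration required for complete inhibition of growth.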

Key:
Test in all cases: NCI-60 cell line screen, 48 h
HCT-15 colon = system: HCT-15 colon
NCI/ADR-RES ovarian = system: NCI/ADR-RES ovarian
ACHN renal = system: ACHN renal
PC-3 prostate = system: PC-3 prostate
CCRF-CEM leukemia = system: CCRF-CEM leukemia
COLO 205 colon = system: COLO 205 colon
OVCAR-8 ovarian = system: OVCAR-8 ovarian
UACC-62 melanoma = system: UACC-62 melanoma
MALME-3M melanoma = system: MALME-3M melanoma
MCF7 breast = system: MCF7 breast
MDA-MB-231 breast = system: MDA-MB-231 breast
SK-MEL-5 melanoma = system: SK-MEL-5 melanoma
M14 melanoma = system: M14 melanoma
SK-MEL-28 melanoma = system: SK-MEL-28 melanoma
SF-539 CNS = system: SF-539 CNS
IGROV1 ovarian = system: IGROV1 ovarian
SK-MEL-2 melanoma = system: SK-MEL-2 melanoma
BT-549 breast = system: BT-549 breast
T-47D breast = system: T-47D breast
SW-620 colon = system: SW-620 colon
NCI-H23 lung = system: NCI-H23 lung
RPMI-8226 leukemia = system: RPMI-8226 leukemia
UO-31 renal = system: UO-31 renal
A498 renal = system: A498 renal
HS 578T breast = system: HS 578T breast
LOX IMVI melanoma = system: LOX IMVI melanoma
HT29 colon = system: HT29 colon
RXF 393 renal = system: RXF 393 renal
NCI-H522 lung = system: NCI-H522 lung
HOP-62 NSCLC = system: HOP-62 NSCLC
U251 CNS = system: U251 CNS
NCI-H460 lung = system: NCI-H460 lung
SN12C renal = system: SN12C renal
EKVX NSCLC = system: EKVX NSCLC
786-0 renal = system: 786-0 renal
K-562 leukemia = system: K-562 leukemia
SK-OV-3 ovarian = system: SK-OV-3 ovarian
HOP-92 NSCLC = system: HOP-92 NSCLC
SNB-75 CNS = system: SNB-75 CNS
OVCAR-3 ovarian = system: OVCAR-3 ovarian
OVCAR-5 ovarian = system: OVCAR-5 ovarian
SF-295 CNS = system: SF-295 CNS
DU-145 prostate = system: DU-145 prostate
SNB-19 CNS = system: SNB-19 CNS
A549 NSCLC = system: A549 NSCLC
TK-10 renal = system: TK-10 renal
MDA-MB-435 = system: MDA-MB-435
MOLT-4 leukemia = system: MOLT-4 leukemia
HCC-2998 colon = system: HCC-2998 colon
HL-60(TB) leukemia = system: HL-60(TB) leukemia
CAKI-1 renal = system: CAKI-1 renal
UACC-257 melanoma = system: UACC-257 melanoma
KM12 colon = system: KM12 colon
OVCAR-4 ovarian = system: OVCAR-4 ovarian
SF-268 CNS = system: SF-268 CNS
NCI-H226 lung = system: NCI-H226 lung
HCT-116 colon = system: HCT-116 colon

## O=C1/C(=C/c2ccccc2)CN(C(=O)CCN2CCC(=NO)CC2)C/C1=C\c1ccccc1
HCT-15 colon
  GI50: 1.39 µM
  TGI: 3.27 µM
NCI/ADR-RES ovarian
  GI50: 2.49 µM
  TGI: 8.68 µM
ACHN renal
  GI50: 1.85 µM
  TGI: 3.91 µM
PC-3 prostate
  GI50: 1.52 µM
  TGI: 3.87 µM
CCRF-CEM leukemia
  GI50: 0.758 µM
  TGI: 9.33 µM
COLO 205 colon
  GI50: 1.68 µM
  TGI: 3.29 µM
OVCAR-8 ovarian
  GI50: 1.31 µM
  TGI: 3.29 µM
UACC-62 melanoma
  GI50: 1.7 µM
  TGI: 3.77 µM
MALME-3M melanoma
  GI50: 2.01 µM
  TGI: 5.18 µM
MCF7 breast
  GI50: 0.355 µM
  TGI: 1.98 µM
MDA-MB-231 breast
  GI50: 1.83 µM
  TGI: 3.47 µM
SK-MEL-5 melanoma
  GI50: 1.64 µM
  TGI: 2.99 µM
M14 melanoma
  GI50: 1.5 µM
  TGI: 3.37 µM
SK-MEL-28 melanoma
  GI50: 2.19 µM
  TGI: 5.29 µM
SF-539 CNS
  GI50: 1.91 µM
  TGI: 3.85 µM
IGROV1 ovarian
  GI50: 1.69 µM
  TGI: 3.35 µM
SK-MEL-2 melanoma
  GI50: 4.56 µM
  TGI: 16.2 µM
BT-549 breast
  GI50: 1.63 µM
  TGI: 3.27 µM
T-47D breast
  GI50: 2.68 µM
  TGI: 7.91 µM
SW-620 colon
  GI50: 0.322 µM
  TGI: 1.3 µM
NCI-H23 lung
  GI50: 1.89 µM
  TGI: 4.28 µM
RPMI-8226 leukemia
  GI50: 0.32 µM
  TGI: 1.23 µM
UO-31 renal
  GI50: 1.4 µM
  TGI: 2.71 µM
A498 renal
  GI50: 1.67 µM
  TGI: 3.9 µM
HS 578T breast
  GI50: 3.09 µM
  TGI: 14.6 µM
LOX IMVI melanoma
  GI50: 0.366 µM
  TGI: 1.41 µM
HT29 colon
  GI50: 1.21 µM
  TGI: 3.61 µM
RXF 393 renal
  GI50: 1.56 µM
  TGI: 2.96 µM
NCI-H522 lung
  GI50: 1.6 µM
  TGI: 3.36 µM
HOP-62 NSCLC
  GI50: 1.79 µM
  TGI: 3.64 µM
U251 CNS
  GI50: 1.51 µM
  TGI: 3.49 µM
NCI-H460 lung
  GI50: 2.43 µM
  TGI: 5.83 µM
SN12C renal
  GI50: 1.86 µM
  TGI: 4.03 µM
EKVX NSCLC
  GI50: 2.81 µM
  TGI: 9.01 µM
786-0 renal
  GI50: 1.98 µM
  TGI: 4.51 µM
K-562 leukemia
  GI50: 0.396 µM
  TGI: > 100 µM
SK-OV-3 ovarian
  GI50: 2.51 µM
  TGI: 7.09 µM
HOP-92 NSCLC
  GI50: 2.03 µM
  TGI: 6.4 µM
SNB-75 CNS
  GI50: 2.85 µM
  TGI: 11.5 µM
OVCAR-3 ovarian
  GI50: 1.66 µM
  TGI: 3.15 µM
OVCAR-5 ovarian
  GI50: 1.8 µM
  TGI: 3.58 µM
SF-295 CNS
  GI50: 2.08 µM
  TGI: 4.64 µM
DU-145 prostate
  GI50: 1.8 µM
  TGI: 3.27 µM
SNB-19 CNS
  GI50: 1.83 µM
  TGI: 4.06 µM
A549 NSCLC
  GI50: 3.05 µM
TK-10 renal
  GI50: 2.38 µM
  TGI: 7.79 µM
MDA-MB-435
  GI50: 1.42 µM
  TGI: 3.19 µM
MOLT-4 leukemia
  GI50: 0.686 µM
  TGI: 11.3 µM
HCC-2998 colon
  GI50: 1.73 µM
  TGI: 3.32 µM
HL-60(TB) leukemia
  GI50: 2.59 µM
  TGI: 8.33 µM
CAKI-1 renal
  GI50: 1.61 µM
  TGI: 3.01 µM
UACC-257 melanoma
  GI50: 1.92 µM
  TGI: 4.7 µM
KM12 colon
  GI50: 0.663 µM
  TGI: 2.23 µM
OVCAR-4 ovarian
  GI50: 2.15 µM
  TGI: 4.69 µM

## NC(N)=NN=C(c1ccccc1)c1ccccc1
HCT-15 colon
  GI50: 3.25 µM
  TGI: > 100 µM
NCI/ADR-RES ovarian
  GI50: 19.7 µM
  TGI: > 100 µM
SF-268 CNS
  GI50: 6.8 µM
  TGI: > 100 µM
ACHN renal
  GI50: 4.13 µM
  TGI: > 100 µM
NCI-H226 lung
  GI50: 14.1 µM
  TGI: > 100 µM
PC-3 prostate
  GI50: 2.95 µM
  TGI: > 100 µM
CCRF-CEM leukemia
  GI50: 4.38 µM
  TGI: > 100 µM
COLO 205 colon
  GI50: 1.91 µM
  TGI: 4.19 µM
OVCAR-8 ovarian
  GI50: 3.87 µM
  TGI: 39.8 µM
UACC-62 melanoma
  GI50: 4.64 µM
  TGI: 42.5 µM
MALME-3M melanoma
  GI50: 2.99 µM
  TGI: 19.1 µM
MCF7 breast
  GI50: 2.28 µM
  TGI: 41.7 µM
MDA-MB-231 breast
  GI50: 4.3 µM
  TGI: 40.8 µM
SK-MEL-5 melanoma
  GI50: 3.06 µM
  TGI: 14.7 µM
M14 melanoma
  GI50: 2.64 µM
  TGI: 9.3 µM
SK-MEL-28 melanoma
  GI50: 5.82 µM
  TGI: 36.9 µM
IGROV1 ovarian
  GI50: 4.32 µM
  TGI: 87.6 µM
SK-MEL-2 melanoma
  GI50: 2.16 µM
  TGI: 13.9 µM
BT-549 breast
  GI50: 5.51 µM
  TGI: 65.3 µM
T-47D breast
  GI50: 6.65 µM
  TGI: > 100 µM
SW-620 colon
  GI50: 3.63 µM
  TGI: 41.5 µM
NCI-H23 lung
  GI50: 6.04 µM
  TGI: > 100 µM
RPMI-8226 leukemia
  GI50: 3.97 µM
  TGI: 17.8 µM
UO-31 renal
  GI50: 4.48 µM
  TGI: > 100 µM
A498 renal
  GI50: 3.49 µM
  TGI: > 100 µM
HS 578T breast
  GI50: 1.78 µM
  TGI: 7.91 µM
LOX IMVI melanoma
  GI50: 6.09 µM
  TGI: 51.8 µM
HT29 colon
  GI50: 2.89 µM
  TGI: 17.8 µM
RXF 393 renal
  GI50: 1.71 µM
  TGI: 3.93 µM
NCI-H522 lung
  GI50: 2.38 µM
  TGI: 8.51 µM
HOP-62 NSCLC
  GI50: 6.75 µM
  TGI: > 100 µM
U251 CNS
  GI50: 3.5 µM
  TGI: 24.6 µM
NCI-H460 lung
  GI50: 3.51 µM
  TGI: 17.3 µM
SN12C renal
  GI50: 6.25 µM
  TGI: > 100 µM
EKVX NSCLC
  GI50: 6.82 µM
  TGI: > 100 µM
786-0 renal
  GI50: 4.71 µM
  TGI: 36.2 µM
K-562 leukemia
  GI50: 4.35 µM
  TGI: 27.5 µM
SK-OV-3 ovarian
  GI50: 3.31 µM
  TGI: 23.7 µM
HOP-92 NSCLC
  GI50: 2.14 µM
  TGI: 55.1 µM
SNB-75 CNS
  GI50: 3.49 µM
  TGI: > 100 µM
OVCAR-3 ovarian
  GI50: 2.15 µM
  TGI: 5.49 µM
OVCAR-5 ovarian
  GI50: 7.94 µM
  TGI: > 100 µM
SF-295 CNS
  GI50: 2.9 µM
  TGI: 16 µM
DU-145 prostate
  GI50: 3.45 µM
  TGI: > 100 µM
SNB-19 CNS
  GI50: 7.69 µM
  TGI: > 100 µM
A549 NSCLC
  GI50: 4.03 µM
  TGI: > 100 µM
TK-10 renal
  GI50: 5.75 µM
  TGI: > 100 µM
HCT-116 colon
  GI50: 3.53 µM
  TGI: 89.7 µM
MDA-MB-435
  GI50: 0.612 µM
  TGI: 2.94 µM
MOLT-4 leukemia
  GI50: 8.82 µM
  TGI: 91.7 µM
HCC-2998 colon
  GI50: 4.49 µM
  TGI: 20.4 µM
HL-60(TB) leukemia
  GI50: 3.11 µM
  TGI: 12.1 µM
CAKI-1 renal
  GI50: 3.77 µM
  TGI: > 100 µM
UACC-257 melanoma
  GI50: 9.79 µM
  TGI: 41.9 µM
KM12 colon
  GI50: 2.53 µM
  TGI: 20 µM
OVCAR-4 ovarian
  GI50: 5.16 µM
  TGI: 93.6 µM
